Numbers after ± are expanded uncertainties.
Assays:
[1] = 101.3 kPa, Liquid; for speed of sound: Sing-around technique in a fixed-path interferometer; for mass density: Vibrating tube method
[2] = refractive index (Na D-line) (dimensionless); settings: 101.33 kPa, Liquid, Standard Abbe refractometry
[3] = xn = mol fraction of the nth substance listed; settings: 101.3 kPa, Liquid, x2 = 0; for speed of sound: Sing-around technique in a fixed-path interferometer; for mass density: Vibrating tube method
[4] = refractive index (Na D-line) (dimensionless); xn = mol fraction of the nth substance listed; settings: 101.3 kPa, Liquid, Standard Abbe refractometry, x2 = 0

c1ccc2c(c1)CCCC2 [1,2,3,4-tetrahydronaphthalene]
speed of sound ([1]; 293.15 K): 1489.5 ± 1.3 m/s | mass density ([1]; 293.15 K): 969.52 ± 0.23 kg/m3 | speed of sound ([1]; 303.15 K): 1450.1 ± 1.2 m/s | mass density ([1]; 303.15 K): 961.59 ± 0.23 kg/m3 | speed of sound ([1]; 313.15 K): 1411.5 ± 1.2 m/s | mass density ([1]; 313.15 K): 953.66 ± 0.23 kg/m3 | speed of sound ([1]; 323.15 K): 1373.6 ± 1.2 m/s | mass density ([1]; 323.15 K): 945.72 ± 0.23 kg/m3 | speed of sound ([1]; 333.15 K): 1336.4 ± 1.2 m/s | mass density ([1]; 333.15 K): 937.77 ± 0.23 kg/m3 | speed of sound ([1]; 343.15 K): 1299.8 ± 1.2 m/s | mass density ([1]; 343.15 K): 929.8 ± 0.23 kg/m3 | refractive index ([2]; 293.15 K): 1.54155 ± 0.00037 | refractive index ([2]; 303.15 K): 1.53687 ± 0.00037 | refractive index ([2]; 313.15 K): 1.53216 ± 0.00037 | refractive index ([2]; 323.15 K): 1.52752 ± 0.00037 | refractive index ([2]; 333.15 K): 1.52274 ± 0.00037 | refractive index ([2]; 343.15 K): 1.51795 ± 0.00037

CCCCCCCCCCCC [dodecane]
speed of sound ([1]; 293.15 K): 1297.9 ± 1.2 m/s | mass density ([1]; 293.15 K): 748.92 ± 0.24 kg/m3 | speed of sound ([1]; 303.15 K): 1259.5 ± 1.2 m/s | mass density ([1]; 303.15 K): 741.66 ± 0.24 kg/m3 | speed of sound ([1]; 313.15 K): 1221.6 ± 1.2 m/s | mass density ([1]; 313.15 K): 734.38 ± 0.24 kg/m3 | speed of sound ([1]; 323.15 K): 1184.4 ± 1.2 m/s | mass density ([1]; 323.15 K): 727.07 ± 0.24 kg/m3 | speed of sound ([1]; 333.15 K): 1147.8 ± 1.2 m/s | mass density ([1]; 333.15 K): 719.73 ± 0.24 kg/m3 | speed of sound ([1]; 343.15 K): 1111.8 ± 1.2 m/s | mass density ([1]; 343.15 K): 712.34 ± 0.25 kg/m3 | refractive index ([2]; 293.15 K): 1.42218 ± 0.00037 | refractive index ([2]; 303.15 K): 1.41784 ± 0.00037 | refractive index ([2]; 313.15 K): 1.41346 ± 0.00037 | refractive index ([2]; 323.15 K): 1.40914 ± 0.00037 | refractive index ([2]; 333.15 K): 1.40479 ± 0.00037 | refractive index ([2]; 343.15 K): 1.40018 ± 0.00037

CCCCCCCCCCCC [dodecane] + c1ccc2c(c1)CCCC2
speed of sound ([3]; 293.15 K): 1297.9 ± 1.2 m/s | mass density ([3]; 293.15 K): 748.92 ± 0.24 kg/m3 | speed of sound ([3]; 303.15 K): 1259.5 ± 1.2 m/s | mass density ([3]; 303.15 K): 741.66 ± 0.24 kg/m3 | speed of sound ([3]; 313.15 K): 1221.6 ± 1.2 m/s | mass density ([3]; 313.15 K): 734.38 ± 0.24 kg/m3 | speed of sound ([3]; 323.15 K): 1184.4 ± 1.2 m/s | mass density ([3]; 323.15 K): 727.07 ± 0.24 kg/m3 | speed of sound ([3]; 333.15 K): 1147.8 ± 1.2 m/s | mass density ([3]; 333.15 K): 719.73 ± 0.24 kg/m3 | speed of sound ([3]; 343.15 K): 1111.8 ± 1.2 m/s | mass density ([3]; 343.15 K): 712.34 ± 0.25 kg/m3 | refractive index ([4]; 293.15 K): 1.42218 ± 0.00037 | refractive index ([4]; 303.15 K): 1.41784 ± 0.00037 | refractive index ([4]; 313.15 K): 1.41346 ± 0.00037 | refractive index ([4]; 323.15 K): 1.40914 ± 0.00037 | refractive index ([4]; 333.15 K): 1.40479 ± 0.00037 | refractive index ([4]; 343.15 K): 1.40018 ± 0.00037

— the NIST ThermoML archive (doi:10.1016/j.jct.2012.05.023)
